Measurements from patent US10758534B2 (Vertex Pharmaceuticals Incorporated, priority 2014, dated 2020).

molecular target: T1, F508del (Homo sapiens, UniProt P13569, DEL508-508); assay: Protocol 2: FRET membrane potential optical assay (VIPR), identification of correction compounds; format: cell-based; settings: F508del CFTR modulator activity; compounds of Table 1; read-out: EC30
T1 construct: expressed in transfected cells
Procedure, shortened: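 FRET read-out (CC2-DMPE donor, DiSBAC2(3) voltage-sensitive acceptor) of membrane depolarization on VIPR II. Corrector candidates incubated 16 hrs at 37° C. with NIH3T3 cells expressing F508del; temperature correction at 27° C. as positive control; stimulation by 10 μM forskolin, 20 μM genistein, chloride-free gluconate bath.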

T1 sequence (P13569 with tags, fused parts or gaps DEL508-508): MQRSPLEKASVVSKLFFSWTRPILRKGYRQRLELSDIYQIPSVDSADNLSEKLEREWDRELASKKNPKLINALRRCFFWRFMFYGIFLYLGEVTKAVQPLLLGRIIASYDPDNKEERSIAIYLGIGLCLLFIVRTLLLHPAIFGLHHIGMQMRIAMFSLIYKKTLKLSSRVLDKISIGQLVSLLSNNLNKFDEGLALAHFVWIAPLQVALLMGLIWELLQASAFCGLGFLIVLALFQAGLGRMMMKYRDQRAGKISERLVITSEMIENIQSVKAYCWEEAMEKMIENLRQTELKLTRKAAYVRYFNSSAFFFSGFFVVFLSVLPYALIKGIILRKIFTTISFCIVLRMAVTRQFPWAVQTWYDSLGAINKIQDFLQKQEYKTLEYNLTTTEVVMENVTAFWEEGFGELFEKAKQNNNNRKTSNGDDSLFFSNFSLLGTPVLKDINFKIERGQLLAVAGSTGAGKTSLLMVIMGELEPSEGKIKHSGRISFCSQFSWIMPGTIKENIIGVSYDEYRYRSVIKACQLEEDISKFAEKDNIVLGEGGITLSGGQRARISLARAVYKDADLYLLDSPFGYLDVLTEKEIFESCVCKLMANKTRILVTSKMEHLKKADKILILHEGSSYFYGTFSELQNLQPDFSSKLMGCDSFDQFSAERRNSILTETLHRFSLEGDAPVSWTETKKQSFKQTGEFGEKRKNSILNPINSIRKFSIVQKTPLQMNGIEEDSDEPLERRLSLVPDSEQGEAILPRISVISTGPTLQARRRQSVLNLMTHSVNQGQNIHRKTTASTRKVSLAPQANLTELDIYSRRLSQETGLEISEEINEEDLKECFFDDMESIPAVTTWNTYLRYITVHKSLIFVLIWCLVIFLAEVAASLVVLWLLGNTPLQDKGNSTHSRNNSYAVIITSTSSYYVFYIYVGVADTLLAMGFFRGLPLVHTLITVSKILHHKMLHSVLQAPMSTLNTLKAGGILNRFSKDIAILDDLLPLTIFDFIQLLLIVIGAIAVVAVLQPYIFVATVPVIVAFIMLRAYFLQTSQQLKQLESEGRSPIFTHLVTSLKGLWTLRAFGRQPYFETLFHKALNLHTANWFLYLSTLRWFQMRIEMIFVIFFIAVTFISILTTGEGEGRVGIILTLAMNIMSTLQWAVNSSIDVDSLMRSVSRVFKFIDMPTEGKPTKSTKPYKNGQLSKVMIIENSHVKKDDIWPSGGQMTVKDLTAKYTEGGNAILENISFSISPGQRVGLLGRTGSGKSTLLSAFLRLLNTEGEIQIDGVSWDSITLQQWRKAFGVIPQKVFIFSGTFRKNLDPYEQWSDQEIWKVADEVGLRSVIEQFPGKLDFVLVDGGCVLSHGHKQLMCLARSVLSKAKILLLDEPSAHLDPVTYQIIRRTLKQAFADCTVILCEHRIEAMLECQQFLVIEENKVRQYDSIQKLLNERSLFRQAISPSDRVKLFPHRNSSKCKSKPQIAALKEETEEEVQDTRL

EC30	Compound
< 3000 nM	CC1CN(c2ncccc2C(=O)NS(=O)(=O)c2cccc(Oc3c(F)cc(F)cc3F)n2)C(C)(C)C1 (stereo not shown) [Compound 2654, N—[[6-(2,4,6-trifluorophenoxy)-2-pyridyl]sulfonyl]-2-(2,2,4-trimethylpyrrolidin-1-yl)pyridine-3-carboxamide]
< 3000 nM	CC1CN(c2ncccc2C(=O)NS(=O)(=O)c2cccc(Nc3ccc(Cl)cn3)n2)C(C)(C)C1 (stereo not shown) [Compound 2656, N—[[6-[(5-chloro-2-pyridyl)amino]-2-pyridyl]sulfonyl]-2-(2,2,4-trimethylpyrrolidin-1-yl)pyridine-3-carboxamide]
3000 to 10000 nM	C[C@@H]1CN(c2nc(-c3cc4ccccc4n3C(=O)OC(C)(C)C)ccc2C(=O)NS(=O)(=O)c2cccnc2N)C(C)(C)C1 [Compound 2657, tert-butyl 2-[5-[(2-amino-3-pyridyl)sulfonylcarbamoyl]-6-[(4S)-2,2,4-trimethylpyrrolidin-1-yl]-2-pyridyl]indole-1-carboxylate]
3000 to 10000 nM	CC(C)Oc1cnn(-c2ccc(C(=O)NS(=O)(=O)c3cccc(N)n3)c(N3C[C@@H](C)CC3(C)C)n2)c1 [Compound 2658, N-[(6-amino-2-pyridyl)sulfonyl]-6-(4-isopropoxypyrazol-1-yl)-2-[(4S)-2,2,4-trimethylpyrrolidin-1-yl]pyridine-3-carboxamide]
3000 to 10000 nM	CC1CN(c2ncccc2C(=O)NS(=O)(=O)c2cccc(Nc3ccccc3C#N)n2)C(C)(C)C1 (stereo not shown) [Compound 2659, N—[[6-(2-cyanoanilino)-2-pyridyl]sulfonyl]-2-(2,2,4-trimethylpyrrolidin-1-yl)pyridine-3-carboxamide]
< 3000 nM	Cc1ccc(F)cc1-c1ccc(C(=O)NS(=O)(=O)c2cccnc2N)c(N2C[C@@H](C)CC2(C)C)n1 [Compound 2660, N-[(2-amino-3-pyridyl)sulfonyl]-6-(5-fluoro-2-methyl-phenyl)-2-[(4S)-2,2,4-trimethylpyrrolidin-1-yl]pyridine-3-carboxamide]
3000 to 10000 nM	COc1ccc(CNc2cccc(S(=O)(=O)NC(=O)c3cccnc3N3CC(C)CC3(C)C)n2)cc1OC (stereo not shown) [Compound 2662, N—[[6-[(3,4-dimethoxyphenyl)methylamino]-2-pyridyl]sulfonyl]-2-(2,2,4-trimethylpyrrolidin-1-yl)pyridine-3-carboxamide]
< 3000 nM	CC1CN(c2ncccc2C(=O)NS(=O)(=O)c2cccc(Oc3cc(Cl)cc(Cl)c3)n2)C(C)(C)C1 (stereo not shown) [Compound 2663, N—[[6-(3,5-dichlorophenoxy)-2-pyridyl]sulfonyl]-2-(2,2,4-trimethylpyrrolidin-1-yl)pyridine-3-carboxamide]
< 3000 nM	COc1ccc(-c2ccc(C(=O)NS(=O)(=O)c3cccnc3N)c(N3C[C@@H](C)CC3(C)C)n2)cc1OC [Compound 2664, N-[(2-amino-3-pyridyl)sulfonyl]-6-(3,4-dimethoxyphenyl)-2-[(4S)-2,2,4-trimethylpyrrolidin-1-yl]pyridine-3-carboxamide]
< 3000 nM	CCOc1cc(-c2ccc(C(=O)NS(=O)(=O)c3cccnc3N)c(N3C[C@@H](C)CC3(C)C)n2)ccc1F [Compound 2665, N-[(2-amino-3-pyridyl)sulfonyl]-6-(3-ethoxy-4-fluoro-phenyl)-2-[(4S)-2,2,4-trimethylpyrrolidin-1-yl]pyridine-3-carboxamide]
3000 to 10000 nM	COc1ccccc1-c1ccc(C(=O)NS(=O)(=O)N2CC[C@H](N)C2)c(N2C[C@@H](C)CC2(C)C)n1 [Compound 2666, N-[(3S)-3-aminopyrrolidin-1-yl]sulfonyl-6-(2-methoxyphenyl)-2-[(4S)-2,2,4-trimethylpyrrolidin-1-yl]pyridine-3-carboxamide]
< 3000 nM	COc1ccc(-c2ccc(C(=O)NS(=O)(=O)c3cccnc3N)c(N3C[C@@H](C)CC3(C)C)n2)cc1 [Compound 2667, N-[(2-amino-3-pyridyl)sulfonyl]-6-(4-methoxyphenyl)-2-[(4S)-2,2,4-trimethylpyrrolidin-1-yl]pyridine-3-carboxamide]
3000 to 10000 nM	Cc1nn(C)c(C)c1-c1ccc(C(=O)NS(=O)(=O)c2cccnc2N)c(N2C[C@@H](C)CC2(C)C)n1 [Compound 2668, N-[(2-amino-3-pyridyl)sulfonyl]-6-(1,3,5-trimethylpyrazol-4-yl)-2-[(4S)-2,2,4-trimethylpyrrolidin-1-yl]pyridine-3-carboxamide]
< 3000 nM	C[C@@H]1CN(c2nc(-n3ccc(OCC(C)(C)C)n3)ccc2C(=O)NS(=O)(=O)c2cccnc2N2CCCCC2)C(C)(C)C1 [Compound 2670, 6-[3-(2,2-dimethylpropoxy)pyrazol-1-yl]-N-[[2-(1-piperidyl)-3-pyridyl]sulfonyl]-2-[(4S)-2,2,4-trimethylpyrrolidin-1-yl]pyridine-3-carboxamide]
< 3000 nM	C[C@@H]1CN(c2nc(-n3ccc(-c4ccccc4)n3)ccc2C(=O)NS(=O)(=O)C2CC2)C(C)(C)C1 [Compound 2674, N-cyclopropylsulfonyl-6-(3-phenylpyrazol-1-yl)-2-[(4S)-2,2,4-trimethylpyrrolidin-1-yl]pyridine-3-carboxamide]
< 3000 nM	C[C@@H]1CC[C@H](C)N1c1nc(-n2ccc(-c3ccccc3)n2)ccc1C(=O)NS(=O)(=O)C1CC1 [Compound 2676, N-cyclopropylsulfonyl-2-[(2S,5R)-2,5-dimethylpyrrolidin-1-yl]-6-(3-phenylpyrazol-1-yl)pyridine-3-carboxamide]
3000 to 10000 nM	CCOCCOc1ccc(C(=O)NS(=O)(=O)c2cccc(N)n2)c(N2C[C@@H](C)CC2(C)C)n1 [Compound 2678, N-[(6-amino-2-pyridyl)sulfonyl]-6-(2-ethoxyethoxy)-2-[(4S)-2,2,4-trimethylpyrrolidin-1-yl]pyridine-3-carboxamide]

Compound	EC30
CC(C)COc1cc(F)cc(-c2ccc(C(=O)NS(=O)(=O)C3CCCNC3)c(N3C[C@@H](C)CC3(C)C)n2)c1 (stereo partly drawn) [Compound 2655, 6-(3-fluoro-5-isobutoxy-phenyl)-N-(3-piperidylsulfonyl)-2-[(4S)-2,2,4-trimethylpyrrolidin-1-yl]pyridine-3-carboxamide]	< 3000 nM
Cc1cc(C(=O)c2ccccc2)cc(C)c1Oc1nc(-c2cc(F)cc(OCC(C)C)c2)ccc1C(=O)NS(=O)(=O)c1cccc(N)n1 [Compound 2669, N-[(6-amino-2-pyridyl)sulfonyl]-2-(4-benzoyl-2,6-dimethyl-phenoxy)-6-(3-fluoro-5-isobutoxy-phenyl)pyridine-3-carboxamide]	< 3000 nM
Cc1cc(I)cc(C)c1Oc1nc(-c2cc(F)cc(OCC(C)C)c2)ccc1C(=O)NS(=O)(=O)c1cccc(N)n1 [Compound 2671, N-[(6-amino-2-pyridyl)sulfonyl]-6-(3-fluoro-5-isobutoxy-phenyl)-2-(4-iodo-2,6-dimethyl-phenoxy)pyridine-3-carboxamide]	< 3000 nM
CC(C)COc1cc(F)cc(-c2nc(N3C[C@@H](C)CC3(C)C)cnc2C(=O)NS(=O)(=O)c2cccc(N)n2)c1 [Compound 2673, N-[(6-amino-2-pyridyl)sulfonyl]-3-(3-fluoro-5-isobutoxy-phenyl)-5-[(4S)-2,2,4-trimethylpyrrolidin-1-yl]pyrazine-2-carboxamide]	< 3000 nM
CC(C)COc1cc(F)cc(-c2ccc(C(=O)NS(=O)(=O)N[C@@H]3CCCNC3)c(N3C[C@@H](C)CC3(C)C)n2)c1 [Compound 2677, 6-(3-fluoro-5-isobutoxy-phenyl)-N-[[(3R)-3-piperidyl]sulfamoyl]-2-[(4S)-2,2,4-trimethylpyrrolidin-1-yl]pyridine-3-carboxamide]	< 3000 nM
